Source: patent publication US12139488B2, “Pyrido[3,2-d]pyrimidine compounds uses thereof for treating a proliferative disease” (Universite de Montreal, priority 2021, dated 2024)
pIC50: −log10 of the molar value. Like-named read-outs stand apart in the source and are kept apart here.

Tests used:
BRAF = BRAF (Homo sapiens (Human), UniProt P15056); assay: BRAF kinase activity assay (ADP-Glo); format: biochemical; conditions: for pIC50: first kinase column (c6), * symbols, read-out: Kinase IC50
Description: (§1) Compound preparation: solid samples of each substances in 1 dram vials were suspended in DMSO (Fisher Scientific) at a stock concentration of 20 mM. Stocks were kept at −20° C. and protected from light.
(§2) In vitro enzymatic reactions were used for evaluating compounds intrinsic activity against BRAF, CRAF and ARAF. […] Separate reactions were performed with the MEK1 substrate and ATP as a blank control.
(§3) For compound treatment, 5 μL/well of test substance solution are placed in a 384-well proxyplate (Perkin Elmer) and mixed with 2× concentrated kinase reactions. The dilution series is selected so that nine concentrations cover a range from 100 nM to 0.01 nM. […] The final concentration of DMSO in the assay is set at 0.05%.
(§4) BRAF and CRAF kinase reactions were carried out for a total of 2 hours at 30° C. and then stopped by ½ dilution in ADP-Glo Reagent (cat #V9102; Promega; part V912C). Reactions were then incubated for 1h at room temperature before addition of one volume of Kinase Detection Reagent (cat #V9102; Promega; part V917A). Plates were then equilibrated at room temperature for 30 minutes before detection of luminescence on a Synergy Neo2 plate reader (Biotek). The effect of each compound dilution on BRAF and CRAF kinase activity was expressed as % inhibition and calculated as follows.
(§5) IC50 values were obtained by plotting the kinase inhibition values and fitting the dose-activity curves using a log(agonist) versus response-variable slope (four parameters) function using either GraphPadPrism (V7.0) or Dotmatics Screening Ultra platform.

CRAF = CRAF (Homo sapiens, UniProt P04049); assay: CRAF kinase activity assay (ADP-Glo); format: biochemical; conditions: for pIC50: § symbols, read-out: Kinase IC50
Sequence of CRAF (P04049 whole entry, looked up): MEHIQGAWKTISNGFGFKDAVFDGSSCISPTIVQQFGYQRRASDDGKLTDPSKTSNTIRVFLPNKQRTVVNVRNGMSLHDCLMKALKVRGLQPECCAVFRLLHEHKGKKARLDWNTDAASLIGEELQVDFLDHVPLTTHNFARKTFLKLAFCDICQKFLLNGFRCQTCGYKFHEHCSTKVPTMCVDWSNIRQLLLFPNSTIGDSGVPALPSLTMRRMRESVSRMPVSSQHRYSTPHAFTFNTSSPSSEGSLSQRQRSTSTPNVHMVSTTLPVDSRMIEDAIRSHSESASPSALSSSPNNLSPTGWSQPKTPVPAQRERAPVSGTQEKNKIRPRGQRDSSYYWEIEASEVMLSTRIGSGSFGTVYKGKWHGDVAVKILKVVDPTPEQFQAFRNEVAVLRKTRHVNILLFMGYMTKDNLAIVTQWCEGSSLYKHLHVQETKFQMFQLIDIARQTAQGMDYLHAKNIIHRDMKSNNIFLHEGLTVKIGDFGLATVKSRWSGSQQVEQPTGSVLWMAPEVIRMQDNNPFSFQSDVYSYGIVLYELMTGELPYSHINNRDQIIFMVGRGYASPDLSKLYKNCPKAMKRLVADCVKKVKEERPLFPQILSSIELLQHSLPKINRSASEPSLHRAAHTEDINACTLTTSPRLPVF
Description: as §1, §2, §3, §4, §5

[1] = system: pERK in HCT-116 cells (KRAS G13D); assay: Phospho-ERK inhibition (AlphaLISA SureFire Ultra p-ERK 1/2), HCT116; format: cell-based, human; conditions: for HCT116 pERK % Ymin (lowest value of the IC50 curve): Ymin above −20% = minimal or no paradoxical activation
Summary of the method: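 Cells in RPMI-1640 with 5% FBS were plated overnight, then exposed for 1 h to ten-point dilutions (typically 10 μM to 0.33 nM; 0.5% DMSO). Lysates were read by AlphaLISA SureFire Ultra for p-ERK1/2 Thr202/Tyr204; % inhibition used trametinib background and DMSO controls, with IC50 from four-parameter fits.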

[2] = Homo sapiens, HCT-116, HCT116 cells, class symbol
[3] = Table 5, read-out: Kinase IC50 (nM) BRAF
[4] = Table 5, read-out: Kinase IC50 (nM) CRAF
[5] = lowest value of the curve, HCT116, Table 5
[6] = BRAF, read-out: Kinase IC50 (nM), BRAF biochemical kinase assay
[7] = CRAF, read-out: Kinase IC50 (nM), CRAF biochemical kinase assay
[8] = read-out: Kinase IC50 (nM) BRAF
[9] = read-out: Kinase IC50 (nM) CRAF
[10] = HCT116 cells, class symbol before the bracket
[11] = lowest % inhibition value of the IC50 curve, HCT116

Sequence of BRAF (P15056 whole entry): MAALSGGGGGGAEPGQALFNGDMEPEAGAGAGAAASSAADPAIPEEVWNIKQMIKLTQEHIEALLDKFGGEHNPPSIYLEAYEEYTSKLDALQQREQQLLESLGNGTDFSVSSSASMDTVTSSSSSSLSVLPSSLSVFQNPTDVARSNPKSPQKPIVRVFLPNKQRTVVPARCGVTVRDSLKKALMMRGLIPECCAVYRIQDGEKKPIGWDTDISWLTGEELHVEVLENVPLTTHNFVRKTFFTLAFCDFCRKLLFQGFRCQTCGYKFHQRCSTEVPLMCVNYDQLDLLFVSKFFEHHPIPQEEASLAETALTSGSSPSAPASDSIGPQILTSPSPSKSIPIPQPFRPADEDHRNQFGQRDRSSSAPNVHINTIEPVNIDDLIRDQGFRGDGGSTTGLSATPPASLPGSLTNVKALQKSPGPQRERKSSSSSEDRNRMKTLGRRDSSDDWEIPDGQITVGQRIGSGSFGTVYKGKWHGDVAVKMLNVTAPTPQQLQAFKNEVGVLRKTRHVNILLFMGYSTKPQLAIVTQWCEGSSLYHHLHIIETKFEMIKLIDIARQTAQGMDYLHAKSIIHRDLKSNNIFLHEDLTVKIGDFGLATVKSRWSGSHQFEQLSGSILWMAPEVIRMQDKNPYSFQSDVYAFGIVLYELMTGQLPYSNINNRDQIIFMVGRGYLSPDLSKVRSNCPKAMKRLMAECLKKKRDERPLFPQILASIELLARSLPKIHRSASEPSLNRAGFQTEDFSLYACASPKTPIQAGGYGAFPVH

Structure (SMILES) | IC50 (BRAF; [8]) | IC50 (CRAF; [9]) | HCT116 pERK Ymin % ([1]; HCT116 cells, Ymin in brackets) | pIC50 [1, 10] | further results
Cc1c(F)cccc1S(=O)(=O)Nc1ccc(F)c(Nc2ncnc3ccc(-n4cnc5c(CO)cccc54)nc23)c1F [Example 345, N-[2,4-difluoro-3-[[6-[4-(hydroxymethyl)benzimidazol-1-yl]pyrido[3,2-d]pyrimidin-4-yl]amino]phenyl]-3-fluoro-2-methyl-benzenesulfonamide] |  |  |  |  | pIC50 (BRAF): 8.00 to 9.00; pIC50 (CRAF): > 8.00; pIC50 [1, 2]: > 6.30
COc1ccc(S(=O)(=O)Nc2ccc(F)c(Nc3ncnc4ccc(-n5cnc6ccccc65)nc34)c2Cl)cc1 [Example 239] |  |  |  |  | IC50 (BRAF; [3]): > 10 nM; IC50 (CRAF; [4]): > 50 nM; pIC50 ([1]; HCT116 cells, Table 5): 5.00 to 6.00; HCT116 pERK Ymin % [1, 5]: 6.7%
O=S(=O)(Nc1ccc(F)c(Nc2ncnc3ccc(-n4cnc5c(N6CCC(O)(CCO)CC6)cccc54)nc23)c1F)c1cccc(Cl)c1Cl [Example 671] |  |  |  |  | IC50 (BRAF; [6]): < 1 nM; IC50 (CRAF; [7]): < 10 nM; pIC50 ([1]; HCT116 cells): > 6.30; HCT116 pERK % Ymin (lowest value of the IC50 curve) ([1]; HCT116 cells): −5%
NC(=O)Cc1cn(-c2ccc3ncnc(Nc4c(F)ccc(NS(=O)(=O)c5ccccc5Cl)c4F)c3n2)c2ccccc12 [Ex 90] | 1 to 10 nM | < 10 nM | −1% | 5.00 to 6.00 | 
CC(=O)c1cn(-c2ccc3ncnc(Nc4c(F)ccc(NS(=O)(=O)c5ccccc5Cl)c4F)c3n2)c2ccccc12 [Ex 214] | 1 to 10 nM | > 50 nM | −12% | 5.00 to 6.00 | 
CNCc1cccc2c1ncn2-c1ccc2ncnc(Nc3c(F)ccc(NS(=O)(=O)c4ccccc4Cl)c3F)c2n1 [Ex 215] | 1 to 10 nM | 10 to 50 nM | −9% | 5.00 to 6.00 | 
Cc1csc(S(=O)(=O)Nc2ccc(F)c(Nc3ncnc4ccc(-n5cnc6ccccc65)nc34)c2F)c1Cl [Example 316, N-(3-((6-(1H-benzo[d]imidazol-1-yl)pyrido[3,2-d]pyrimidin-4-yl)amino)-2,4-difluorophenyl)-3-chloro-4-methylthiophene-2-sulfonamide] | < 1 nM | < 10 nM |  |  | pIC50 ([1]; Homo sapiens, HCT-116, HCT116 cells, 1 h treatment): 6.00 to 6.30; HCT116 pERK Ymin % [1, 11]: −5%
O=S(=O)(Nc1ccc(F)c(Nc2ncnc3ccc(-n4cnc5c(CN6CCC(O)CC6)cccc54)nc23)c1F)c1ccccc1Cl [Ex 229] | < 1 nM | 10 to 50 nM | −7% | 5.00 to 6.00 | 
Nc1nc(-c2ccc3ncnc(Nc4c(F)ccc(NS(=O)(=O)c5ccccc5Cl)c4F)c3n2)cs1 [Example 94] | > 10 nM | > 50 nM | −5% | 5.00 to 6.00 | 
O=S(=O)(Nc1cc(F)c(F)c(Nc2ncnc3ccc(-n4cnc5ccccc54)nc23)c1F)c1cccc(Cl)c1Cl [Example 648] |  |  |  |  | IC50 (BRAF; [3]): 1 to 10 nM; IC50 (CRAF; [4]): < 10 nM; pIC50 ([1]; HCT116 cells, Table 5): > 6.30; HCT116 pERK Ymin % [1, 5]: −1%
O=S(=O)(Nc1ccc(F)c(Nc2ncnc3ccc(-n4cnc5c(-c6cccnc6)cccc54)nc23)c1F)c1ccccc1Cl [Example 243] | 1 to 10 nM | < 10 nM | −3.9% | > 6.30 | 
O=S(=O)(Nc1ccc(F)c(Nc2ncnc3ccc(-n4cnc5nccnc54)nc23)c1F)c1cccc(Cl)c1Cl [Example 573] |  |  |  |  | IC50 (BRAF; [6]): > 10 nM; IC50 (CRAF; [7]): > 50 nM; pIC50 ([1]; HCT116 cells): 5.00 to 6.00; HCT116 pERK % Ymin (lowest value of the IC50 curve) ([1]; HCT116 cells): −1%
O=S(=O)(Nc1ccc(F)c(Nc2ncnc3ccc(-n4cnc5c(CN6CCCC6)cccc54)nc23)c1F)c1ccccc1Cl [Ex 219] | 1 to 10 nM | 10 to 50 nM | 0% | 5.00 to 6.00 | 
O=S(=O)(Nc1ccc(F)c(Nc2ncnc3ccc(-n4nc(-c5nnc(O)o5)c5ccccc54)nc23)c1F)c1cccc(Cl)c1Cl [Example 208] | 1 to 10 nM | < 10 nM | −4% | 5.00 to 6.00 | 
Cc1c(F)cccc1S(=O)(=O)Nc1ccc(F)c(Nc2ncnc3ccc(-n4ncc5c4CN(C)CC5)nc23)c1F [Example 664] |  |  |  |  | IC50 (BRAF; [6]): 1 to 10 nM; IC50 (CRAF; [7]): > 50 nM; pIC50 ([1]; HCT116 cells): 5.00 to 6.00; HCT116 pERK % Ymin (lowest value of the IC50 curve) ([1]; HCT116 cells): −15%
COC1CN(Cc2cccc3c2ncn3-c2ccc3ncnc(Nc4c(F)ccc(NS(=O)(=O)c5ccccc5Cl)c4F)c3n2)C1 [Ex 226] | 1 to 10 nM | > 50 nM | −9% | 5.00 to 6.00 | 
O=S(=O)(Nc1ccc(F)c(Nc2ncnc3ccc(-n4cnc5c(CN6CC(O)C6)cccc54)nc23)c1F)c1ccccc1Cl [Ex 225] | 1 to 10 nM | 10 to 50 nM | −8% | 5.00 to 6.00 | 
CN(C)Cc1cccc2c1ncn2-c1ccc2ncnc(Nc3c(F)ccc(NS(=O)(=O)c4ccccc4Cl)c3F)c2n1 [Ex 216] | 1 to 10 nM | 10 to 50 nM | −8.8% | 6.00 to 6.30 | 
O=S(=O)(Nc1ccc(F)c(Nc2ncnc3ccc(-n4cnc5c(N6C7CCC6CN(CCO)C7)cccc54)nc23)c1F)c1cccc(Cl)c1Cl [Example 629] |  |  |  |  | IC50 (BRAF; [6]): 1 to 10 nM; IC50 (CRAF; [7]): 10 to 50 nM; HCT116 pERK % Ymin (lowest value of the IC50 curve) ([1]; HCT116 cells): −2%
O=S(=O)(Nc1cc(F)c(F)c(Nc2ncnc3ccc(-n4nnc5ccccc54)nc23)c1F)c1cccc(Cl)c1Cl [Example 649] |  |  |  |  | IC50 (BRAF; [3]): 1 to 10 nM; IC50 (CRAF; [4]): < 10 nM; pIC50 ([1]; HCT116 cells, Table 5): > 6.30; HCT116 pERK Ymin % [1, 5]: 3%
Cc1c(Cl)csc1S(=O)(=O)Nc1ccc(F)c(Nc2ncnc3ccc(-n4cnc5ccccc54)nc23)c1F [Example 315] | 1 to 10 nM | < 10 nM |  |  | pIC50 ([1]; HCT116 cells, 1 h treatment): > 6.30; HCT116 pERK Ymin % [1, 11]: −12%
O=S(=O)(Nc1ccc(F)c(Nc2ncnc3ccc(-n4nc(-c5ncc[nH]5)c5ccccc54)nc23)c1F)c1cccc(Cl)c1Cl [Example 212] | 1 to 10 nM | > 50 nM | −13% | 5.00 to 6.00 | 
N#CC1(c2cccc3c2nnn3-c2ccc3ncnc(Nc4c(F)ccc(NS(=O)(=O)c5cccc(Cl)c5Cl)c4F)c3n2)CC1 [Example 610] |  |  |  |  | IC50 (BRAF; [6]): 1 to 10 nM; IC50 (CRAF; [7]): < 10 nM; pIC50 ([1]; HCT116 cells): > 6.30; HCT116 pERK % Ymin (lowest value of the IC50 curve) ([1]; HCT116 cells): −2%
NCC(=O)c1cn(-c2ccc3ncnc(Nc4c(F)ccc(NS(=O)(=O)c5ccccc5Cl)c4F)c3n2)c2ccccc12 [Example 223] | 1 to 10 nM | > 50 nM | −9% | 5.00 to 6.00 | 
CC(=O)N1CCCc2nn(-c3ccc4ncnc(Nc5c(F)ccc(NS(=O)(=O)c6cccc(Cl)c6Cl)c5F)c4n3)cc21 [Example 486] |  |  |  |  | pIC50 (BRAF): 8.00 to 9.00; pIC50 (CRAF): > 8.00; pIC50 [1, 2]: 6.00 to 6.30
CNC(=O)c1cn(-c2ccc3ncnc(Nc4c(F)ccc(NS(=O)(=O)c5ccccc5Cl)c4F)c3n2)c2ccccc12 [Ex 86] | 1 to 10 nM | 10 to 50 nM | −10% | 5.00 to 6.00 | 
Cc1c(Cl)cccc1S(=O)(=O)Nc1ccc(F)c(Nc2ncnc3ccc(-n4cnc5c(O)cccc54)nc23)c1F [Example 116] | < 1 nM | < 10 nM | −18% | 6.00 to 6.30 | 
